In paper PMC6474809 (Cell chemical biology, 2019):

How the values were obtained:
H. influenzae NfsB [1] = biological target: T1, H. influenzae NfsB (Haemophilus influenzae, UniProt Q57431)
H. influenzae NfsB [2] = biological target: T1, H. influenzae NfsB; remark: listed apart in the source
H. influenzae NfsB [3] = biological target: T1, H. influenzae NfsB; experiment: inhibition of chloramphenicol reduction by purified enzyme, monitored at […] nm; type: biochemical
[4] = system: O=C(N[C@H](CO)[C@H](O)c1ccc([N+](=O)[O-])cc1)C(Cl)Cl; experiment: purified protein; type: biochemical, Haemophilus influenzae; conditions: FMN, NADPH
H. influenzae NfsB [5] = biological target: T1, H. influenzae NfsB; experiment: NAD; type: biochemical
H. influenzae NfsB [6] = biological target: T1, H. influenzae NfsB; experiment: Michaelis-Menten kinetics by NADPH oxidation; type: biochemical
H. influenzae NfsB [7] = biological target: T1, H. influenzae NfsB; experiment: TLC of flavin released from heat-denatured purified enzyme; type: binding

T1 sequence (Q57431 whole entry): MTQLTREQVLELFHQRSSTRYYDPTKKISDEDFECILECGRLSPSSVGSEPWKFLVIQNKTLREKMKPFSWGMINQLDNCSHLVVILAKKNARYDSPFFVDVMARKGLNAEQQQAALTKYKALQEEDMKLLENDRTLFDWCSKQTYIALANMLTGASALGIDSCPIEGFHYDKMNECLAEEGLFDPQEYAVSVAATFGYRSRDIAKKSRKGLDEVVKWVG

## O=C1CN(/N=C/c2ccc([N+](=O)[O-])o2)C(=O)N1 [nitrofurantoin]
H. influenzae NfsB [1]
  Michaelis-Menten kinetics at 420 nm (kcat/KM): 242890 M⁻¹ s⁻¹

## O=[N+]([O-])c1ccc(O)cc1 [4-nitrophenol]
H. influenzae NfsB [2]
  enzyme turnover monitored at 450 nm; kcat/KM not determined: All three of these compounds also acted as substrates, with menadione showing relatively high activity and 4-nitrophenol showing relatively low

## O=c1oc2ccccc2c(O)c1Cc1c(O)c2ccccc2oc1=O [dicoumarol]
H. influenzae NfsB [3]
  IC50: 120 µM

## H. influenzae NfsB (Haemophilus influenzae Rd KW20)
[4]
  Km: 500 µM

## NC(=O)C1=CN([C@@H]2O[C@H](COP(=O)(O)OP(=O)(O)OC[C@H]3O[C@@H](n4cnc5c(N)ncnc54)[C@H](OP(=O)(O)O)[C@@H]3O)[C@@H](O)[C@H]2O)C=CC1 [NADPH]
H. influenzae NfsB [5]
  NAD(P)H oxidation at 340 nm with purified enzyme: requires NADPH as a cofactor and does not utilize NADH

## O=[N+]([O-])c1cccc(O)c1 [3-nitrophenol]
H. influenzae NfsB [6]
  Michaelis-Menten kinetics by NADPH oxidation (kcat/KM): 61800 M⁻¹ s⁻¹

## Cc1cc2nc3c(=O)[nH]c(=O)nc-3n(C[C@H](O)[C@H](O)[C@H](O)COP(=O)(O)O)c2cc1C [flavin mononucleotide]
H. influenzae NfsB [7]
  TLC of flavin released from heat-denatured purified enzyme: tightly binds a flavin cofactor, most likely flavin mononucleotide (FMN)

## CC1=CC(=O)c2ccccc2C1=O [menadione]
H. influenzae NfsB [6]
  Michaelis-Menten kinetics by NADPH oxidation (kcat/KM): 79340 M⁻¹ s⁻¹
